For one assay, the target named is PIK3CB (Human) (UniProt P42338). The assay is described as follows: Inhibition of PIK3CB Kinase Activity.
The target in the next assay is PIK3CA (human) (UniProt P42336). The assay is described as follows: Inhibition of PIK3CA Kinase Activity.
A further assay deals with PIK3CD (Human) (UniProt O00329). The assay is described as follows: Inhibition of PIK3CD Kinase Activity.
A further assay concerns the target PIK3CG (human) (UniProt P48736). In words: Inhibition of PIK3CG Kinase Activity.

Several values for one entry are separate records, joined by “and”; a condition that tells them apart may be missing. Equal values may be shown once.

The values below come from the Kinase Knowledgebase extract (Sharma et al. 2016).

A word on the IC50: it is the concentration needed to halve the response being measured. Low readings indicate greater potency in that assay, high ones weaker potency in that assay.

PIK3CG (human), sequence (P48736 whole entry, looked up): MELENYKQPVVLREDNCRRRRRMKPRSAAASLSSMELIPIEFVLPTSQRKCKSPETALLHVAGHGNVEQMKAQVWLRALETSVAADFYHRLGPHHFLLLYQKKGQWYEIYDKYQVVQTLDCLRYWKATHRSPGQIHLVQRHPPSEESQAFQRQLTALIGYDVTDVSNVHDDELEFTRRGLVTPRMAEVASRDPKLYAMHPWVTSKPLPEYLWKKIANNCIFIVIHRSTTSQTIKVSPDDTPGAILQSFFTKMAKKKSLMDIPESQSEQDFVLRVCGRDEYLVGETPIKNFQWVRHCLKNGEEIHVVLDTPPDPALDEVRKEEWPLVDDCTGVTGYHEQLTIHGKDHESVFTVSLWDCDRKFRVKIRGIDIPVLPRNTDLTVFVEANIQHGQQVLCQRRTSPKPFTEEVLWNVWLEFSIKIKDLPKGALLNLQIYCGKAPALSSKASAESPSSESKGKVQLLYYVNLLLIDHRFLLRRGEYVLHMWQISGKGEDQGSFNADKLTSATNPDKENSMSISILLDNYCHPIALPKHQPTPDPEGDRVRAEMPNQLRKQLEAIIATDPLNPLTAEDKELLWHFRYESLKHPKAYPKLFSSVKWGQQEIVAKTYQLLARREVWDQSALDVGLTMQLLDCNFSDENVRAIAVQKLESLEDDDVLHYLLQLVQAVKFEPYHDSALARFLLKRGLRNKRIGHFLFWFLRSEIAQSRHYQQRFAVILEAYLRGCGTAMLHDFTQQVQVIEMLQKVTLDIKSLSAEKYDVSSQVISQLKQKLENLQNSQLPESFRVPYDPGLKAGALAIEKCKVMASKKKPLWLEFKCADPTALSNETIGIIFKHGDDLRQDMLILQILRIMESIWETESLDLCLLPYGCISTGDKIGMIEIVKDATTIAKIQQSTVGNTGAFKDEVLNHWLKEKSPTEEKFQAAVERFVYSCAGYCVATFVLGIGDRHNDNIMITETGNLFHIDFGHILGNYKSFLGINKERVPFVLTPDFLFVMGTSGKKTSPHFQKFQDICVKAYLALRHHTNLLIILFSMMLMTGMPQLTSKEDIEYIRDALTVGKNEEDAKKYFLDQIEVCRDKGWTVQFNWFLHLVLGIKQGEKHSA
PIK3CA (human), sequence (P42336 whole entry, looked up): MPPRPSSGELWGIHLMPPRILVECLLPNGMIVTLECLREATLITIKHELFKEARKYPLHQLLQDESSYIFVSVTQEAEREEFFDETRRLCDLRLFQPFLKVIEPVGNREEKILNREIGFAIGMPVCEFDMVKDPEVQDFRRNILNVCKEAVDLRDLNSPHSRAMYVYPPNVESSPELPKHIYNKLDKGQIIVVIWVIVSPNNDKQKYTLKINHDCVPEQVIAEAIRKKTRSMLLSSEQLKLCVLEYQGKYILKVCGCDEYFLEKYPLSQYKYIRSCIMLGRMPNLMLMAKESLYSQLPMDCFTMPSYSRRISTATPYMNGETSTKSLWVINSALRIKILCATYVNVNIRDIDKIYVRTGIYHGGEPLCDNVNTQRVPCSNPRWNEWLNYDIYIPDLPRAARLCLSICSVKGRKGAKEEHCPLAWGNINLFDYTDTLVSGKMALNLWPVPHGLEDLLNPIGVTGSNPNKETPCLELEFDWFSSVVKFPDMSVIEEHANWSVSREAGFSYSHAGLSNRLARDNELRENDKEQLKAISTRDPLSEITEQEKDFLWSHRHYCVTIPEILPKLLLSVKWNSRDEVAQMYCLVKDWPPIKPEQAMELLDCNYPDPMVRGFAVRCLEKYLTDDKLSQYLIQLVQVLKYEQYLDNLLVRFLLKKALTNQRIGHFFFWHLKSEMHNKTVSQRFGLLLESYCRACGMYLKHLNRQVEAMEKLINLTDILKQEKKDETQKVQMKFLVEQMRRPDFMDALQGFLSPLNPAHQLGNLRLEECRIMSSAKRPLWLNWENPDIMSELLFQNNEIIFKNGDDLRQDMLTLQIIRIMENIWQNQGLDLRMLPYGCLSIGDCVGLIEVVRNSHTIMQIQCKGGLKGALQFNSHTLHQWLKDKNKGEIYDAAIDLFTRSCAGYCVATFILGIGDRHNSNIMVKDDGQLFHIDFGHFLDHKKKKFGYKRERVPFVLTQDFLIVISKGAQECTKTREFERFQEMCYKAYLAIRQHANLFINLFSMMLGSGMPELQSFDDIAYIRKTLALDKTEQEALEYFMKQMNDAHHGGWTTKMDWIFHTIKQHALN
PIK3CD (Human), sequence (O00329 whole entry, looked up): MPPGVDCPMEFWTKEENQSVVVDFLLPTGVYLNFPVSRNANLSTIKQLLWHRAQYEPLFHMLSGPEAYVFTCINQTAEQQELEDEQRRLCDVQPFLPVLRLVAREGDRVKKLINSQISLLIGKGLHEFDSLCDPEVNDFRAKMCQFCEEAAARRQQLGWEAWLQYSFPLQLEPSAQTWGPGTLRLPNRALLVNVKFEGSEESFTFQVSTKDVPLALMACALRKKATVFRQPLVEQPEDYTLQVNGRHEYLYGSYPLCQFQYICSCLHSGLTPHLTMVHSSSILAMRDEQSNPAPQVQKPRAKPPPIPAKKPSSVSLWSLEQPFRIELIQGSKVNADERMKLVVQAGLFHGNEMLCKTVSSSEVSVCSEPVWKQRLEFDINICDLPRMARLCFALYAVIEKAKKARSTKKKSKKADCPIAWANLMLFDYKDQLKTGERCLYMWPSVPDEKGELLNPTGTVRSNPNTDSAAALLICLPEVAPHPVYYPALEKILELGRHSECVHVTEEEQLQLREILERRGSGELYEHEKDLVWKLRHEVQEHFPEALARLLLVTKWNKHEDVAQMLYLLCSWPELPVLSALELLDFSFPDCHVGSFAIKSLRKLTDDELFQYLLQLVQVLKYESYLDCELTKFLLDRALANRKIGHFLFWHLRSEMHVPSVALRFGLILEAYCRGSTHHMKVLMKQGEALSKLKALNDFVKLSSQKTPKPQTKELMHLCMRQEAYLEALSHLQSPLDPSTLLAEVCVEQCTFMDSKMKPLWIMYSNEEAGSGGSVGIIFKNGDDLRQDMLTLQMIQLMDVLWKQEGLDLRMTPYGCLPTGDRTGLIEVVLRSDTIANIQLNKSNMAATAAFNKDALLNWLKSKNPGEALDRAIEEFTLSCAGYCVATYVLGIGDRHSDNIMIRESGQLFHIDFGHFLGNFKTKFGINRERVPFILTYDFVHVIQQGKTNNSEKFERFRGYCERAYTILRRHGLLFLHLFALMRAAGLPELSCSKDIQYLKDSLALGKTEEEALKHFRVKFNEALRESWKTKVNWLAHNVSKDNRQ
PIK3CB (Human), sequence (P42338 whole entry, looked up): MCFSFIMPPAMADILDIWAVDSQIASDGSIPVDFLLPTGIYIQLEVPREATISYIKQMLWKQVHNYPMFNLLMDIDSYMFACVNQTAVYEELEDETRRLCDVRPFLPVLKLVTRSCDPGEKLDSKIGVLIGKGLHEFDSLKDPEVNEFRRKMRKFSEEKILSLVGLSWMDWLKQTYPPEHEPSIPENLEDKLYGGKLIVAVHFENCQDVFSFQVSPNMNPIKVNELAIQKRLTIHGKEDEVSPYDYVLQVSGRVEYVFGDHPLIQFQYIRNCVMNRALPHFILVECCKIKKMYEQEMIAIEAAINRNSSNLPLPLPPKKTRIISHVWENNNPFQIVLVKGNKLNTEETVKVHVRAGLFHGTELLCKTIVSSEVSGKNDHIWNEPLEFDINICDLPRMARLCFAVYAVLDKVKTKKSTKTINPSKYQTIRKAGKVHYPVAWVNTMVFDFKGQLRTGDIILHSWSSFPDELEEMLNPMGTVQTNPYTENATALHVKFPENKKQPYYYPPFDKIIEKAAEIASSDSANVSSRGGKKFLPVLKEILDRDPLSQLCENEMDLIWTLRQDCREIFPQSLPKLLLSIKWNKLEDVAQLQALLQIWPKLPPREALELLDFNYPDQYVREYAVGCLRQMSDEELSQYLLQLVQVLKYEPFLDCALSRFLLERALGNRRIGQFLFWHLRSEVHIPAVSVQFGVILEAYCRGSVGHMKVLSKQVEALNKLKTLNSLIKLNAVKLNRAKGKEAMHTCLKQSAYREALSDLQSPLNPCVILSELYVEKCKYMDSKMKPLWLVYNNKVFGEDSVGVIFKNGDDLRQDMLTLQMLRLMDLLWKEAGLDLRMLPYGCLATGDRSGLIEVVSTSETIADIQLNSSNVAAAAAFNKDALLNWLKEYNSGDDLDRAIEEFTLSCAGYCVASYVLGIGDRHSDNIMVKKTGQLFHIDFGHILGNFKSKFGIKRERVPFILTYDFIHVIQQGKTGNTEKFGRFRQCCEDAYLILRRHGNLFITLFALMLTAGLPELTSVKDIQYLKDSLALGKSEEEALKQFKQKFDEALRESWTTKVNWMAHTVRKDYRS

As to `CC(=O)Nc1cccc(-c2nc(N3CCOCC3)c3oc4ncccc4c3n2)c1`, the 50% inhibitory concentration (IC50) worked out at 2650 nM on PIK3CB (Human), 301 nM on PIK3CA (human), 333 nM against PIK3CD (Human) and 9070 nM against PIK3CG (human).

On to `Cc1cc(C(C)Nc2ccccc2)c2nc(N3CCOCC3)cc(=O)n2c1` (stereo unspecified), for which the IC50 at PIK3CA (human) is 5000 nM and 784 nM; against PIK3CG (human), 3500 nM and 3240 nM.
